Measurements as given in patent US10688110B2 (NanGenex Nanotechnology Incorporated, priority 2015, dated 2020).
Where two headings read alike, the source gives them in different places.

Key:
[1] = healthy subjects, within the clinical dose range; cited from earlier work
PAMPA permeability = format: in vitro ADME; conditions: pH 7, simulated saliva condition
[2] = cited from earlier work
[3] = cited from earlier work; remark: listed apart in the source
[4] = single oral dose of radiolabeled drug

In the case of `Cc1ccc(-c2cc(C(F)(F)F)nn2-c2ccc(S(N)(=O)=O)cc2)cc1` [Celecoxib, 4-[5-(4-methylphenyl)-3-(trifluoromethyl)-1H-pyrazol-1-yl] benzenesulfonamide], the protein bound [1] is given as roughly 97%, the Papp (PAMPA permeability) is given as 0.3 ×10⁻⁶ cm/s and the “solubility in methanol and chloroform” value [2] is given as “soluble”. The solubility in water [2] was “insoluble”, the “time of peak plasma levels” value ([3]; after an oral dose) was “approximately 3 hrs” and the effective half-life ([3]; fasted conditions) was “approximately 11 hours”. For the same compound, the “dose proportionality of Cmax and AUC” value ([3]; fasting conditions, up to 200 mg BID) was “roughly dose-proportional”, the “overall systemic exposure (AUC), intact capsule vs capsule contents sprinkled on applesauce” value ([3]; healthy adult volunteers) was “equivalent” and the “apparent plasma clearance (CL/F)” value ([3]; human, in vivo) was “about 500 mL/min”. For the same compound, the “unchanged drug recovered in the urine and feces” value ([3]; human, in vivo) was less than 3%, the steady-state conditions reached ([3]; multiple dosing) was no more than 5 days and the “time of peak plasma levels” value ([3]; single dose of 200 mg of current formulation, oral) was 3 h. For the same compound, the “onset of pain relief” value ([3]; single dose of 200 mg of current formulation) was no less than 1 h, the “dose excreted in the feces” value [3, 4] was “approximately 57%” and the “dose excreted into the urine” value [3, 4] was 27%.
